This note sets out measurements from patent publication US10428017B2, “Modulators of the cystic fibrosis transmembrane conductance regulator protein and methods of use” (AbbVie S.à.r.l., priority 2017, dated 2019).

Like-named read-outs stand apart in the source and are kept apart here. Where only a bound is given, the exact number is not on record here.

This assay concerns the target T1, F508delCFTR (Homo sapiens, UniProt P13569, DEL508-508).
T1 construct: expressed in transfected cells; host or cells: CFBE4lo-F508delCFTR-HRP cells (human lung derived epithelial cell line, doxycycline-inducible)
The assay is described as follows: Cell Surface Expression-Horse Radish Peroxidase (CSE-HRP) Assay. It counts as cell-based. As to conditions: for EC50: CFBE4lo-F508delCFTR-HRP cells, 18-24 hours at 33° C.; for Maximum % activity (with co-corrector): with co-corrector 2 μM. The protocol: Cell Surface Expression-Horse Radish Peroxidase (CSE-HRP) Assay
A cellular assay for measuring the F508delCFTR cell surface expression after correction with test compounds either without or with a co-corrector (2 μM of 3-[(2R,4R)-4-({[1-(2,2-difluoro-1,3-benzodioxol-5-yl)cyclopropyl]carbonyl}amino)-7-methoxy-3,4-dihydro-2H-chromen-2-yl]benzoic acid), was developed in human lung derived epithelial cell line (CFBE4lo−) (Veit G et al, (2012) Mol Biol Cell. 23(21): 4188-4202). The development was achieved by expressing the F508delCFTR mutation along with a horseradish peroxidase (HRP) in the fourth exofacial loop, and then measuring the HRP activity using luminescence readout from these cells, CFBE4lo-F508delCFTR-HRP, that were incubated overnight with the test corrector compounds, either without or with the co-corrector. For this primary assay, the CFBE4lo-F508delCFTR-HRP cells were plated in 384-well plates (Greiner Bio-one; Cat 781080) at 4,000 cells/well along with 0.5 μg/mL doxycycline to induce the F508delCFTR-HRP expression and further incubated at 37° C., 5% CO2 for 72 hours. The test compounds were then added either without or with a co-corrector at the required concentrations and further incubated for 18-24 hours at 33° C. The highest concentration tested was 20 μM with an 8-point concentration response curve using a 3-fold dilution in both the test compound without or with the co-corrector. Three replicate plates were run to determine one EC50. All plates contained negative controls (dimethyl sulfoxide, DMSO) and positive control (2 μM of 3-[(2R,4R)-4-({[1-(2,2-difluoro-1,3-benzodioxol-5-yl)cyclopropyl]carbonyl}amino)-7-methoxy-3,4-dihydro-2H-chromen-2-yl]benzoic acid) as well as on-plate concentration response of the positive control. Post incubation, the plates were washed 5× times with Dulbecco's phosphate buffered saline (DPBS), followed by the addition of the HRP substrate, luminol (50 μL), and measuring the HRP activity using luminescence readout on EnVision® Multilabel Plate Reader (Perkin Elmer; product number 2104-0010). The raw counts from the experiment were analyzed using Accelrys® Assay Explorer v3.3.
Z′ greater than 0.5 was used as passing quality control criteria for the plates.
The Z′ is defined as: 1−[3*SDPositive Control+3*SDNegative Control/Absolute(Meanpostivie Control−MeanNegative Control)] wherein “SD” is standard deviation.
The % activity measured at each of the 8 test concentrations of the test compound added either without or with a co-corrector (2 μM of 3-[(2R,4R)-4-({[1-(2,2-difluoro-1,3-benzodioxol-5-yl)cyclopropyl]carbonyl}amino)-7-methoxy-3,4-dihydro-2H-chromen-2-yl]benzoic acid) was normalized to the on-plate positive control using the following formulae: % activity(Test compound without co-corrector)=[(test compound without co-corrector response−DMSO response)/(positive control response−DMSO response)]*100 % activity(Test compound with co-corrector)=[(test compound with co-corrector response−DMSO response)/(positive control response−DMSO response)]*100
The maximum % activity achieved for the test compound either without or with a co-corrector at any tested concentration is presented in Table 1 along with the respective EC50's calculated using the following general sigmoidal curve with variable Hill slope equation (described as Model 42 in the Accelrys® Assay Explorer v3.3 software): y=(a−d)/(1+(x/c)^b)+d
General sigmoidal curve with concentration, response, top, bottom, EC50 and Hill slope. This model describes a sigmoidal curve with an adjustable baseline, a. The equation can be used to fit curves where response is either increasing or decreasing with respect to the independent variable, “x”.
“x” is a concentration of drug under test.
“a” is the maximum response, and “d” is the minimum response
“c” is the inflection point (EC50) for the curve. That is, “y” is halfway between the lower and upper asymptotes when x=c.
“b” is the slope-factor or Hill coefficient. […]

Where [1] appears, read: test compound without co-corrector, HRP luminescence readout, read-out: EC50 (without co-corrector).
[2] abbreviates: test compound without co-corrector, maximum at any tested concentration (up to 20 μM), normalized to on-plate positive control (2 μM co-corrector).
The mark [3] stands for this setting: with co-corrector 2 μM 3-[(2R,4R)-4-({[1-(2,2-difluoro-1,3-benzodioxol-5-yl)cyclopropyl]carbonyl}amino)-7-methoxy-3,4-dihydro-2H-chromen-2-yl]benzoic acid, read-out: EC50 (with co-corrector).
[4] abbreviates: maximum at any tested concentration (up to 20 μM), normalized to on-plate positive control (2 μM co-corrector).

T1 sequence (P13569 with tags, fused parts or gaps DEL508-508): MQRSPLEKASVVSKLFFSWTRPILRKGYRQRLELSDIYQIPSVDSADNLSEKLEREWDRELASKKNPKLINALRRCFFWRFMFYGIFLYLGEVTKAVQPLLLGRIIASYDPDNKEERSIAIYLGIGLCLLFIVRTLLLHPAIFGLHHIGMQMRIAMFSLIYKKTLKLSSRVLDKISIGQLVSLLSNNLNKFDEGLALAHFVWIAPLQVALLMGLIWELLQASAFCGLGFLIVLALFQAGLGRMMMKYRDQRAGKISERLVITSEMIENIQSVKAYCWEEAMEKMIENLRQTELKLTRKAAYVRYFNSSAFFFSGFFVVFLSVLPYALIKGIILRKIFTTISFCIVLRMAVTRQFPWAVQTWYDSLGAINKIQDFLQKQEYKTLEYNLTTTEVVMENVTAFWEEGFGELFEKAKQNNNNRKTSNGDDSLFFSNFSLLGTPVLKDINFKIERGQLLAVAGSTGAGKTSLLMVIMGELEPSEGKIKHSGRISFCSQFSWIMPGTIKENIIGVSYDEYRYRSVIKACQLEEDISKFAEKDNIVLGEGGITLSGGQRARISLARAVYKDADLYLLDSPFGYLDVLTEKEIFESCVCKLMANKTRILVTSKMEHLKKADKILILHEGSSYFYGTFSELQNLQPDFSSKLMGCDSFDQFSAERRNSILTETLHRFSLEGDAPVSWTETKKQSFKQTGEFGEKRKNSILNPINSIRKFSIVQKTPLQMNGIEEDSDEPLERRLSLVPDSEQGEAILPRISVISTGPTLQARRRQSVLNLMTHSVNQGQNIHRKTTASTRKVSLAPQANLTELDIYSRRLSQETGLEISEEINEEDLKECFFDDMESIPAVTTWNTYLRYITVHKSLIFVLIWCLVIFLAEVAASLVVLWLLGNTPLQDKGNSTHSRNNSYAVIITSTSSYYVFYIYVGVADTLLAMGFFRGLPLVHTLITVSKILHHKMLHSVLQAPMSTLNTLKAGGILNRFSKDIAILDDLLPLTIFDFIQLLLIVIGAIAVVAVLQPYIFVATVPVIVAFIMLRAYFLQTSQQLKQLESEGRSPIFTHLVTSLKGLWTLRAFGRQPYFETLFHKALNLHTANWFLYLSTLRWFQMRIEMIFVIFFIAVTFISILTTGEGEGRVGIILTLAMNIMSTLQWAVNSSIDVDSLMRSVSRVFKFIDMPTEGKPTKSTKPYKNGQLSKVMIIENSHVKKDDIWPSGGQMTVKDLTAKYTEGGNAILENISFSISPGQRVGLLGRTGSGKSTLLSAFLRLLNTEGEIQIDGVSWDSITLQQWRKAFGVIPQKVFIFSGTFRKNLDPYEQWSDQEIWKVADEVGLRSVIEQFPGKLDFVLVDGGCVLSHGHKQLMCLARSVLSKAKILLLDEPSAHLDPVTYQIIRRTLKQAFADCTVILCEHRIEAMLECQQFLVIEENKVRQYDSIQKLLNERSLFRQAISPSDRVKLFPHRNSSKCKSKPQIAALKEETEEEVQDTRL

For “4-methoxy-N-(naphthalene-1-sulfonyl)-5-(trifluoromethyl)-2,3-dihydro-1-benzofuran-3-carboxamide and 4-methoxy-N-(naphthalene-1-sulfonyl)-7-(trifluoromethyl)-2,3-dihydro-1-benzofuran-3-carboxamide [Example 40]”, the half-maximal effective concentration (EC50) runs as follows: under setting [1], less than 3 µM; under setting [3], less than 3 µM. Moreover, the “Maximum % activity (without co-corrector)” value under setting [2] is on record as “+++ (≥150)”. For the same compound, the “Maximum % activity (with co-corrector)” value under setting [4] is “+++ (≥350)”.

With `COc1ccc(C2CCC2)c2c1C(C(=O)NS(=O)(=O)c1cccc3nc(C)ccc13)CCO2` (racemic) [Example 75, 8-cyclobutyl-5-methoxy-N-(2-methylquinoline-5-sulfonyl)-3,4-dihydro-2H-1-benzopyran-4-carboxamide], the concentration giving a half-maximal response (EC50) reads like this: under setting [1], 3 to 10 µM; under setting [3], less than 3 µM. This compound displayed an Emax under setting [2] not below 150%. The “Maximum % activity (with co-corrector)” value under setting [4] is on record as “+++ (≥350)”.

For `COc1ccc(Cl)c2c1[C@@H](C(=O)NS(=O)(=O)c1cccc3ccccc13)CO2` (single isomer, unassigned) [Example 67], the half-maximal effective concentration (EC50) is 3 to 10 µM under setting [1] and less than 3 µM under setting [3]. Besides, the Emax under setting [2] is not below 150%. The “Maximum % activity (with co-corrector)” value under setting [4] was “+++ (≥350)”.

On to `COc1ccc(Cl)c2c1[C@H](C(=O)NS(=O)(=O)c1cccc3ccccc13)CO2` (single isomer, unassigned) [Example 68], for which the 50% effective concentration (EC50) by setting is: under setting [1], 3 to 10 µM; under setting [3], less than 3 µM. For the same compound, the maximal response (Emax) under setting [2] is not below 150%. Besides, the “Maximum % activity (with co-corrector)” value under setting [4] is listed as “+++ (≥350)”.

Regarding `COc1ccc(Br)c2c1[C@@H](C(=O)NS(=O)(=O)c1cccc3ccccc13)CO2` (single isomer, unassigned) [Example 73], the EC50 is, setting by setting: under setting [1], 3 to 10 µM; under setting [3], 3 to 10 µM. The same compound registered an Emax under setting [2] of 50 to 150%. For the same compound, under setting [4], the “Maximum % activity (with co-corrector)” value was “++ (≥150 and <350)”.

Turning to `COc1ccc(Br)c2c1[C@H](C(=O)NS(=O)(=O)c1cccc3ccccc13)CO2` (single isomer, unassigned) [Example 74], the EC50 is less than 3 µM under setting [1] and less than 3 µM under setting [3]. In addition, the Emax under setting [2] is not below 150%. The “Maximum % activity (with co-corrector)” value under setting [4] is recorded as “+++ (≥350)”.

On to `COc1ccc(C2CCC2)c2c1[C@@H](C(=O)NS(=O)(=O)c1cccc3ncccc13)CO2` (single isomer, unassigned) [Example 82], for which the EC50 is, setting by setting: under setting [1], 3 to 10 µM; under setting [3], 3 to 10 µM. For the same compound, under setting [2], the Emax was not below 150%. Moreover, under setting [4], the “Maximum % activity (with co-corrector)” value is “+++ (≥350)”.

With `COc1ccc(C2CCC2)c2c1[C@H](C(=O)NS(=O)(=O)c1cccc3ncccc13)CO2` (single isomer, unassigned) [Example 83], the EC50 was less than 3 µM under setting [1] and less than 3 µM under setting [3]. Under setting [2], this compound showed an Emax not below 150%. Besides, the “Maximum % activity (with co-corrector)” value under setting [4] is “+++ (≥350)”.

For `COc1ccc(C2CCC2)c2c1[C@@H](C(=O)NS(=O)(=O)c1cccc3cnn(C)c13)CO2` (single isomer, unassigned) [Example 94], the EC50 under setting [1] fell in the range of 3 to 10 µM and the concentration giving a half-maximal response (EC50) under setting [3] was less than 3 µM. The maximal response (Emax) under setting [2] is 50 to 150%. Moreover, the “Maximum % activity (with co-corrector)” value under setting [4] was “+++ (≥350)”.

In the case of `COc1ccc(C2CCC2)c2c1[C@H](C(=O)NS(=O)(=O)c1cccc3c1CCCN3)CC(C)(C)O2` (single isomer, unassigned) [Example 97], the EC50 runs as follows: under setting [1], less than 3 µM; under setting [3], less than 3 µM. Under setting [2], this compound had an Emax not below 150%. Further, the “Maximum % activity (with co-corrector)” value under setting [4] is on record as “+++ (≥350)”.

With `COc1ccc(C2CCC2)c2c1[C@@H](C(=O)NS(=O)(=O)c1cccc3c1NCCC3)CO2` (single isomer, unassigned) [Example 98], the half-maximal effective concentration (EC50) runs as follows: under setting [1], 3 to 10 µM; under setting [3], 3 to 10 µM. The compound further yielded an Emax under setting [2] of 50 to 150%. Further, the “Maximum % activity (with co-corrector)” value under setting [4] was “+++ (≥350)”.

Take `COc1ccc(C2CCC2)c2c1OCC[C@H]2C(=O)NS(=O)(=O)c1cccc2ncccc12` (single isomer, unassigned) [Example 106]: the EC50 is less than 3 µM under setting [1] and less than 3 µM under setting [3]. This compound also registered an Emax under setting [2] not below 150%. The “Maximum % activity (with co-corrector)” value under setting [4] was “+++ (≥350)”.

For `COc1ccc(C2CCC2)c2c1OCC[C@@H]2C(=O)NS(=O)(=O)c1cccc2ncccc12` (single isomer, unassigned) [Example 107], the EC50 by setting is: under setting [1], 3 to 10 µM; under setting [3], 3 to 10 µM. The compound also displayed an Emax under setting [2] of less than 50%. Under setting [4], the “Maximum % activity (with co-corrector)” value is “++ (≥150 and <350)”.

`O=C(NS(=O)(=O)c1cccc2ccccc12)C1(c2ccccc2)CCOc2ccc(Br)cc21` (stereo not drawn) [Example 1, 6-bromo-N-(naphthalene-1-sulfonyl)-4-phenyl-3,4-dihydro-2H-1-benzopyran-4-carboxamide]: the concentration giving a half-maximal response (EC50) is less than 3 µM under setting [1] and less than 3 µM under setting [3]. This compound also yielded a maximal response (Emax) under setting [2] not below 150%. For the same compound, the “Maximum % activity (with co-corrector)” value under setting [4] was “+++ (≥350)”.

`CCSC[C@H]1C[C@@](C(=O)NS(=O)(=O)c2cccc3ccccc23)(c2ccccc2)c2ccccc2O1` [Example 2, (2R,4R)-2-[(ethylsulfanyl)methyl]-N-(naphthalene-1-sulfonyl)-4-phenyl-3,4-dihydro-2H-1-benzopyran-4-carboxamide]: the EC50 under setting [1] is less than 3 µM and the concentration for a half-maximal effect (EC50) under setting [3] is less than 3 µM. Under setting [2], this compound registered an Emax of 50 to 150%. Besides, the “Maximum % activity (with co-corrector)” value under setting [4] is “+++ (≥350)”.

For the compound `COc1ccc2c(c1)C(C(=O)NS(=O)(=O)c1cccc3ccccc13)(c1ccccc1)CC(C)(C)O2` (stereo not drawn) [Example 3, 6-methoxy-2,2-dimethyl-N-(naphthalene-1-sulfonyl)-4-phenyl-3,4-dihydro-2H-1-benzopyran-4-carboxamide], the EC50 by setting is: under setting [1], less than 3 µM; under setting [3], less than 3 µM. This compound registered a maximal effect (Emax) under setting [2] not below 150%. Moreover, the “Maximum % activity (with co-corrector)” value under setting [4] is on record as “+++ (≥350)”.

`COc1ccc2c(c1)C(C(=O)NS(=O)(=O)c1cccc3ccccc13)(c1ccccc1)CCO2` (stereo not drawn) [Example 4, 6-methoxy-N-(naphthalene-1-sulfonyl)-4-phenyl-3,4-dihydro-2H-1-benzopyran-4-carboxamide]: the EC50 under setting [1] is less than 3 µM and the EC50 under setting [3] was less than 3 µM. Moreover, under setting [2], the maximal effect (Emax) fell in the range of 50 to 150%. The “Maximum % activity (with co-corrector)” value under setting [4] is reported as “+++ (≥350)”.

For `Cc1cc2c(c(C)c1C(=O)c1ccccc1)C(C(=O)NS(=O)(=O)c1cccc3ccccc13)CCO2` (stereo not drawn) [Example 5, 6-benzoyl-5,7-dimethyl-N-(naphthalene-1-sulfonyl)-3,4-dihydro-2H-1-benzopyran-4-carboxamide], the EC50 under setting [1] is less than 3 µM and the EC50 under setting [3] is less than 3 µM. The same compound showed a maximal response (Emax) under setting [2] not below 150%. In addition, under setting [4], the “Maximum % activity (with co-corrector)” value was “+++ (≥350)”.
